Reference: patent publication US11999727B2 (Tango Therapeutics, Inc., priority 2020, dated 2024)

What was measured:
PRMT5 [1] = molecular target: T1, PRMT5 (Homo sapiens, UniProt O14744); assay: PRMT5 biochemical IC50 assay with SAM as cofactor; conditions: PRMT5, SAM as cofactor; read-out: SAM IC50
T1 construct: purchased Viva (custom protein)

PRMT5 [2] = molecular target: T1, PRMT5; assay: PRMT5 biochemical IC50 assay with no cofactor; conditions: PRMT5, no cofactor; read-out: No Cofactor/rel IC50
From the text: Table 1 indicates IC50 values (μM) against PRMT5 for exemplary compounds in the presence of SAM as cofactor, with no cofactor, and with MTA as cofactor, respectively (columns 4-6). […] Ki values can be calculated from the IC50 values as described in the Examples section. As detailed in the Examples section, for the assay performed in the presence of SAM, IC50=Ki×1.5 (Ki=IC50/1.5).

[3] = system: HAP1 MTAP-intact cell line; assay: SDMA in-cell western assay, HAP1 MTAP-intact; format: cell-based; conditions: Homo sapiens, HAP1, SDMA in-cell western, HAP1 MTAP-intact; read-out: MTAP HAP1 intact IC50
Summary of the method: (§1)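 Compounds were tested in HAP1 cells differing only in MTAP status (endogenous expression versus null). Cellular SDMA levels were then measured by in-cell western, giving an IC50 in each background.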

[4] = system: HAP1 MTAP-deleted cell line; assay: Viability assay, MTAP-deleted cell line; format: cell-based; conditions: Homo sapiens, HAP1, viability assay, MTAP-deleted cell line; read-out: HAP1 MTAP deleted viability
From the text: Table 1 additionally indicates IC50 values in a viability assay for the MTAP-deleted cell line (column 10), indicating the effect of treatment with compound on cell survival.

[5] = system: HAP1 MTAP-deleted cell line; assay: SDMA in-cell western assay, HAP1 MTAP-deleted; format: cell-based; conditions: for IC50: Homo sapiens, HAP1, SDMA in-cell western, HAP1 MTAP-deleted; for MTAP intact/deleted ratio: SDMA in-cell western
Summary of the method: as §1

PRMT5 [6] = molecular target: T1, PRMT5; assay: PRMT5 biochemical IC50 assay with MTA as cofactor; conditions: PRMT5, MTA as cofactor; read-out: MTA IC50
[7] = read-out: HAP 1 MTAP deleted IC50
[8] = IC50 ratio HAP1 MTAP-intact / HAP1 MTAP-deleted
[9] = read-out: HAP1 MTAP deleted IC50
[10] = IC50 ratio HAP1 MTAP-intact vs HAP1 MTAP-deleted

T1 sequence (O14744 whole entry): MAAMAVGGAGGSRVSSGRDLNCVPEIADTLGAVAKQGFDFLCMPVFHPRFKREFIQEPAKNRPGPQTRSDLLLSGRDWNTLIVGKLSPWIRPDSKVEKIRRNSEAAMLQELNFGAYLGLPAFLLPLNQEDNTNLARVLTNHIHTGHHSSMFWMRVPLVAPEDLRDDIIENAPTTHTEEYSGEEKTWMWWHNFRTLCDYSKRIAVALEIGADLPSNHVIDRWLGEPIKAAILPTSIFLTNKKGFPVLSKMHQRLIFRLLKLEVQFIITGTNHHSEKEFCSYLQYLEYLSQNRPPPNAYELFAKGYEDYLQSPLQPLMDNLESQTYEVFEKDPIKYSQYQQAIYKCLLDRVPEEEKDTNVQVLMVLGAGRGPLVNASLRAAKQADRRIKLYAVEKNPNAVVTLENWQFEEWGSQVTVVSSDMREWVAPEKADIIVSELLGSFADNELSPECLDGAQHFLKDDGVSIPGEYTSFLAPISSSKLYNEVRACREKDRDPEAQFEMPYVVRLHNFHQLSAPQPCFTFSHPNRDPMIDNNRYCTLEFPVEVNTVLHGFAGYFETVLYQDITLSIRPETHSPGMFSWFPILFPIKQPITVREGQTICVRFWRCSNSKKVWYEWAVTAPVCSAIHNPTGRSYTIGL
T1 sequence (Q9BQA1 whole entry partner): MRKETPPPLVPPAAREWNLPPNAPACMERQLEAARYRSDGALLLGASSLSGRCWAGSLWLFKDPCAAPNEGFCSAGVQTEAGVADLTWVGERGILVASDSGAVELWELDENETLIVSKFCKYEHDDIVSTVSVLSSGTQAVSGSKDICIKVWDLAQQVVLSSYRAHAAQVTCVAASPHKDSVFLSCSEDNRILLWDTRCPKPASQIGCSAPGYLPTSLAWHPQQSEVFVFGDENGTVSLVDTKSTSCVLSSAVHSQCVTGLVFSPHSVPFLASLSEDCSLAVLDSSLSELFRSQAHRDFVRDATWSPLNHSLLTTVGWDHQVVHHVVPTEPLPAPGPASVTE

Compound | IC50 (PRMT5 [1]) [nM] | IC50 (PRMT5 [2]) [nM] | IC50 [3] [nM] | IC50 [4] [nM] | IC50 [5, 7] [nM] | MTAP intact/deleted ratio [5, 8] | IC50 (PRMT5 [6]) [nM] | IC50 [5, 9] [nM] | MTAP intact/deleted ratio [5, 10]
Cc1cc(NC(=O)C(=O)N2C[C@H](C)CC[C@H]2c2ccsc2)cnc1N (racemic) [Compound 977, rac-N-(6-Amino-5-methyl-3-pyridyl)-2-[(2R,5S)-5-methyl-2-(3-thienyl)-1-piperidyl]-2-oxo-acetamide] | 50 to 500 | 50 to 500 | 100 to 1000 | 1000 to 10000 | < 100 | B (an IC50 ratio greater than or equal to 3 fold but lower than 10 fold) | 50 to 500 |  | 
Cc1ccc([C@H]2CC[C@@H](C)CN2C(=O)C(=O)Nc2cnc(N)c(C)c2)nc1 (racemic) [Compound 982, N-(6-amino-5-methyl-3-pyridyl)-2-[(2R,5R)-5-methyl-2-(5-methyl-2-pyridyl)-1-piperidyl]-2-oxo-acetamide] | > 500 | 50 to 500 | > 1000 | > 10000 | 100 to 1000 | B (an IC50 ratio greater than or equal to 3 fold but lower than 10 fold) | 50 to 500 |  | 
Cc1cc(NC(=O)C(=O)N2C[C@H](C)CC[C@H]2c2ccc(-c3nccs3)cn2)cnc1N (racemic) [Compound 991] | 50 to 500 | 50 to 500 | > 1000 | 1000 to 10000 | 100 to 1000 | C (an IC50 ratio of less than 3 fold) | 50 to 500 |  | 
Cc1cc(NC(=O)C(=O)N2C[C@H](C)CC[C@H]2c2ccc3[nH]c(N)nc3c2)cnc1C (racemic) [Compound 992] | 50 to 500 | 50 to 500 | > 1000 | 1000 to 10000 | < 100 | A (an IC50 ratio greater than or equal to 10 fold) | < 50 |  | 
Cc1ccc([C@@H]2CC[C@@H](C)CN2C(=O)C(=O)Nc2cnc(N)c(C)c2)nc1 (racemic) [Compound 1005, N-(6-Amino-5-methyl-3-pyridyl)-2-[(2R,5S)-5-methyl-2-(5-methyl-2-pyridyl)-1-piperidyl]-2-oxo-acetamide] | > 500 | 50 to 500 | > 1000 | 1000 to 10000 | 100 to 1000 | A (an IC50 ratio greater than or equal to 10 fold) | 50 to 500 |  | 
[2H][C@]1(c2ccc(F)cc2)CC[C@H](C)CN1C(=O)C(=O)Nc1cncc(C(N)=O)c1 (racemic) [Compound 1008, 5-(2-(2-(4-fluorophenyl)-5-methylpiperidin-1-yl-2-d)-2-oxoacetamido)nicotinamide] | 50 to 500 | 50 to 500 | > 1000 | 1000 to 10000 | 100 to 1000 | A (an IC50 ratio greater than or equal to 10 fold) | 50 to 500 |  | 
[2H]c1c([2H])c([C@@]2([2H])CC[C@H](C)CN2C(=O)C(=O)Nc2cncc(C(N)=O)c2)c([2H])c([2H])c1F (racemic) [Compound 1010, 5-(2-(2-(4-fluorophenyl-2,3,5,6-d4)-5-methylpiperidin-1-yl-2-d)-2-oxoacetamido)nicotinamide] | 50 to 500 | 50 to 500 | > 1000 | 1000 to 10000 | 100 to 1000 | A (an IC50 ratio greater than or equal to 10 fold) | 50 to 500 |  | 
Cc1cc(NC(=O)C(=O)N2C[C@H](C)CC[C@H]2c2ccc(F)c3[nH]ncc23)cnc1N (racemic) [Compound 1019] | 50 to 500 | 50 to 500 | > 1000 | 1000 to 10000 | < 100 | A (an IC50 ratio greater than or equal to 10 fold) | 50 to 500 |  | 
Cc1cc(NC(=O)C(=O)N2C[C@H](C)CC[C@H]2c2cncc(Cl)c2)cnc1N (racemic) [Compound 1025, N-(6-amino-5-methyl-3-pyridyl)-2-[(2R,5S)-2-(5-chloro-3-pyridyl)-5-methyl-1-piperidyl]-2-oxo-acetamide] | > 500 | 50 to 500 | > 1000 | 1000 to 10000 | < 100 | A (an IC50 ratio greater than or equal to 10 fold) | 50 to 500 |  | 
CC[C@@H]1CC[C@@H](c2cn[nH]c2)N(C(=O)C(=O)Nc2cnc(N)c(C)c2)C1 (racemic) [Compound 1032, N-(6-amino-5-methyl-3-pyridyl)-2-[(2R,5S)-5-ethyl-2-(1H-pyrazol-4-yl)-1-piperidyl]-2-oxo-acetamide] | 50 to 500 | 50 to 500 | 100 to 1000 | 1000 to 10000 | < 100 | B (an IC50 ratio greater than or equal to 3 fold but lower than 10 fold) | 50 to 500 |  | 
CCc1cc(NC(=O)C(=O)N2C[C@@H](C)CC[C@@H]2c2ccc3nn([C@H]4CCN(C)C4)cc3c2)cnc1N (racemic) [Compound 1091, N-(6-Amino-5-ethyl-3-pyridyl)-2-oxo-2-[rac-(2R,5S)-5-methyl-2-[2-[rac-(3S)-1-methylpyrrolidin-3-yl]indazol-5-yl]-1-piperidyl]acetamide] | 50 to 500 | < 50 | 100 to 1000 | < 1000 |  |  | < 50 | < 100 | A (an IC50 ratio greater than or equal to 10 fold)
CCc1cc(NC(=O)C(=O)N2C[C@@H](C)[C@@H](OC(C)C)C[C@@H]2c2ccc3scnc3c2)cnc1N (racemic) [Compound 1094, N-(6-Amino-5-ethyl-3-pyridyl)-2-[(2S,4R,5S)-2-(1,3-benzothiazol-5-yl)-4-isopropoxy-5-methyl-1-piperidyl]-2-oxo-acetamide] | 50 to 500 | 50 to 500 | 100 to 1000 | < 1000 |  |  | 50 to 500 | < 100 | A (an IC50 ratio greater than or equal to 10 fold)
CCc1cc(NC(=O)C(=O)N2C[C@@H](C)CC[C@@H]2c2ccc3cn(C4CCN(C)CC4)nc3c2)cnc1N (racemic) [Compound 1096, N-(6-Amino-5-ethyl-3-pyridyl)-2-oxo-2-[rac-(2R,5S)-5-methyl-2-[2-(1-methyl-4-piperidyl)indazol-6-yl]-1-piperidyl]acetamide] | < 50 | < 50 | < 100 | < 1000 |  |  | < 50 | < 100 | A (an IC50 ratio greater than or equal to 10 fold)
CCc1cc(NC(=O)C(=O)N2CC(C)CCC2c2ccc3sc(C4CCN(C)CC4C)nc3c2)cnc1N (racemic) [Compound 1098, N-(6-amino-5-ethyl-3-pyridyl)-2-oxo-2-[rac-(2R,5S)-5-methyl-2-[2-[rac-(3R,4S)-1,3-dimethyl-4-piperidyl]-1,3-benzothiazol-5-yl]-1-piperidyl]acetamide] | < 50 | < 50 | < 100 | < 1000 |  |  | < 50 | < 100 | B (an IC50 ratio greater than or equal to 3 fold but lower than 10 fold)
CCc1cc(NC(=O)C(=O)N2C[C@@H](C)CC[C@@H]2c2ccc(N3CCN(C)C[C@@H]3C)nc2)cnc1N (racemic) [Compound 1099, N-(6-amino-5-ethyl-3-pyridyl)-2-[(2R,5S)-2-[6-[(2S)-2,4-dimethylpiperazin-1-yl]-3-pyridyl]-5-methyl-1-piperidyl]-2-oxo-acetamide] | 50 to 500 | < 50 | 100 to 1000 | < 1000 |  |  | < 50 | < 100 | A (an IC50 ratio greater than or equal to 10 fold)
Cc1cc(NC(=O)C(=O)N2C[C@@H](C)CC[C@@H]2c2ccc3sc(-c4cnn(C)c4)nc3c2)cnc1N (racemic) [Compound 1104, rac-N-(6-amino-5-methylpyridin-3-yl)-2-((2R,5S)-5-methyl-2-(2-(1-methyl-1H-pyrazol-4-yl)benzo[d]thiazol-5-yl)piperidin-1-yl)-2-oxoacetamide] | 50 to 500 | < 50 | < 100 | < 1000 |  |  | < 50 | < 100 | B (an IC50 ratio greater than or equal to 3 fold but lower than 10 fold)
Cc1cc(NC(=O)C(=O)N2C[C@H](C)CC[C@H]2c2ccc(N3CCN(C)CC3)cc2)cnc1N (racemic) [Compound 1105, rac-N-(6-Amino-5-methyl-3-pyridyl)-2-[(2R,5S)-5-methyl-2-[4-(4-methylpiperazin-1-yl)phenyl]-1-piperidyl]-2-oxo-acetamide] | 50 to 500 | 50 to 500 | 100 to 1000 | < 1000 |  |  | 50 to 500 | < 100 | A (an IC50 ratio greater than or equal to 10 fold)
